Drawing on PubChem BioAssay AID256 (DTP/NCI, 2004), this text covers T/C for 24 compounds.

In the assay the test system is CD2F1 mice, L1210 leukemia ip, survival T/C. The experiment in a line: NCI In Vivo Anticancer Drug Screen. Data for tumor model L1210 Leukemia (intraperitoneal) in CD2F1 (CDF1) mice. The conditions noted are these: higher = longer survival. The method, boiled down: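 Implant tumor; dose compound or vehicle; measure endpoint in both groups; report treated divided by control.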

Setting [1] is: endpoint: mean survival time, dose: 100.0 mg/kg/injection, schedule: Q01DX009 (ip), vehicle: saline.
Setting [2] is: endpoint: mean survival time, dose: 200.0 mg/kg/injection, schedule: Q01DX009 (ip), vehicle: saline.
The mark [3] stands for this setting: endpoint: mean survival time, dose: 50.0 mg/kg/injection, schedule: Q01DX009 (ip), vehicle: saline with Tween-80.
Where [4] appears, read: endpoint: mean survival time, dose: 100.0 mg/kg/injection, schedule: Q01DX009 (ip), vehicle: saline with Tween-80.
The mark [5] stands for this setting: endpoint: mean survival time, dose: 100.0 mg/kg/injection, schedule: Q01DX001 (ip), vehicle: saline with Tween-80.
[6] abbreviates: endpoint: mean survival time, dose: 100.0 mg/kg/injection, schedule: Q04DX003 (ip), vehicle: saline with Tween-80.
[7] abbreviates: endpoint: mean survival time, dose: 200.0 mg/kg/injection, schedule: Q01DX001 (ip), vehicle: saline with Tween-80.
The mark [8] stands for this setting: endpoint: mean survival time, dose: 400.0 mg/kg/injection, schedule: Q01DX001 (ip), vehicle: saline with Tween-80.
Where [9] appears, read: endpoint: mean survival time, dose: 200.0 mg/kg/injection, schedule: Q01DX009 (ip), vehicle: saline with Tween-80.
The mark [10] stands for this setting: endpoint: mean survival time, dose: 400.0 mg/kg/injection, schedule: Q01DX009 (ip), vehicle: saline with Tween-80.

Inconclusive results and toxic doses are left out.

Turning to `[Cl][Pt+2][Cl].[NH-]CC(=O)O.[NH-]CC(=O)O`, the T/C is 96 % of control (endpoint: mean survival time, dose: 12.5 mg/kg/injection, schedule: Q01DX009 (ip), vehicle: saline); 101 % of control (endpoint: mean survival time, dose: 25.0 mg/kg/injection, schedule: Q01DX009 (ip), vehicle: saline); 108 % of control (endpoint: mean survival time, dose: 50.0 mg/kg/injection, schedule: Q01DX009 (ip), vehicle: saline); 98 % of control under setting [1]; 96 % of control under setting [2].
As to `COc1ccc(C(=O)NCCc2ccc(OC)c(OC)c2)cc1O`, the T/C runs as follows: (endpoint: mean survival time, dose: 12.5 mg/kg/injection, schedule: Q01DX009 (ip), vehicle: other) 100 % of control; (endpoint: mean survival time, dose: 25.0 mg/kg/injection, schedule: Q01DX009 (ip), vehicle: other) 94 % of control; (endpoint: mean survival time, dose: 50.0 mg/kg/injection, schedule: Q01DX009 (ip), vehicle: other) 96 % of control; (endpoint: mean survival time, dose: 100.0 mg/kg/injection, schedule: Q01DX009 (ip), vehicle: other) 90 % of control; (endpoint: mean survival time, dose: 200.0 mg/kg/injection, schedule: Q01DX009 (ip), vehicle: other) 96 % of control.
`C/C=C\c1ccc(OCCOC(=O)Nc2cc(Cl)c(OC)cc2OC)c(OC)c1`: the T/C is 90 % of control under setting [3] and 90 % of control under setting [4].
As to `CC(C)(C)/C(=N\Nc1ccc([N+](=O)[O-])cc1[N+](=O)[O-])c1ccccc1`, the T/C reads like this: (endpoint: mean survival time, dose: 25.0 mg/kg/injection, schedule: Q01DX001 (ip), vehicle: saline with Tween-80) 97 % of control; (endpoint: mean survival time, dose: 50.0 mg/kg/injection, schedule: Q01DX001 (ip), vehicle: saline with Tween-80) 95 % of control; under setting [5], 97 % of control.
Take `Cc1cccc(NC(=S)N(C)C)c1`: the T/C under setting [6] was 104 % of control; the T/C (endpoint: mean survival time, dose: 200.0 mg/kg/injection, schedule: Q04DX003 (ip), vehicle: saline with Tween-80) was 102 % of control; the T/C (endpoint: mean survival time, dose: 400.0 mg/kg/injection, schedule: Q04DX003 (ip), vehicle: saline with Tween-80) is 94 % of control.
`O=C(SSCCSSCCSSC(=O)N1CCOCC1)N1CCOCC1`: the T/C is 93 % of control (endpoint: mean survival time, dose: 100.0 mg/kg/injection, schedule: Q01DX001 (ip), vehicle: Klucel (hydroxypropylcellulose) (HPC)); 100 % of control (endpoint: mean survival time, dose: 200.0 mg/kg/injection, schedule: Q01DX001 (ip), vehicle: Klucel (hydroxypropylcellulose) (HPC)); 93 % of control (endpoint: mean survival time, dose: 400.0 mg/kg/injection, schedule: Q01DX001 (ip), vehicle: Klucel (hydroxypropylcellulose) (HPC)).
`CN(Cc1ccc(C(=O)NC(CCC(=O)O)C(=O)O)cc1)Cc1cnc2nc(N)nc(N)c2n1` (stereo not given): the T/C by setting is: (endpoint: mean survival time, dose: 1.0 mg/kg/injection, schedule: Q01DX009 (ip), vehicle: water) 96 % of control; (endpoint: mean survival time, dose: 10.0 mg/kg/injection, schedule: Q01DX009 (ip), vehicle: water) 114 % of control.
Consider `CCCCOC(=O)c1ccc(NC(=O)Nc2cc([N+](=O)[O-])ccc2C)cc1`, for which the T/C was 101 % of control (endpoint: mean survival time, dose: 50.0 mg/kg/injection, schedule: Q01DX009 (ip), vehicle: Klucel (hydroxypropylcellulose) (HPC)); 89 % of control (endpoint: mean survival time, dose: 100.0 mg/kg/injection, schedule: Q01DX009 (ip), vehicle: Klucel (hydroxypropylcellulose) (HPC)); 104 % of control (endpoint: mean survival time, dose: 200.0 mg/kg/injection, schedule: Q01DX009 (ip), vehicle: Klucel (hydroxypropylcellulose) (HPC)).
Consider `CN(C)C(=O)Oc1cccc(NC(=O)Nc2cccc(OC(=O)N(C)C)c2)c1`, for which the T/C reads like this: under setting [5], 105 % of control; under setting [7], 98 % of control; under setting [8], 97 % of control.
As for `COc1ccc(C(CC(=O)c2ccccc2)CC(=O)c2ccccc2)cc1`, the T/C is, setting by setting: (endpoint: mean survival time, dose: 25.0 mg/kg/injection, schedule: Q01DX009 (ip), vehicle: saline with Tween-80) 94 % of control; (endpoint: mean survival time, dose: 25.0 mg/kg/injection, schedule: Q04DX003 (ip), vehicle: saline with Tween-80) 101 % of control; under setting [3], 96 % of control; (endpoint: mean survival time, dose: 50.0 mg/kg/injection, schedule: Q04DX003 (ip), vehicle: saline with Tween-80) 93 % of control; under setting [6], 87 % of control.
As to `CCCCN=C(C(=NCCCC)N(CCCC)CCCC)N(CCCC)CCCC`, the T/C (endpoint: mean survival time, dose: 100.0 mg/kg/injection, schedule: Q04DX002 (ip), vehicle: saline with Tween-80) is 101 % of control; the T/C (endpoint: mean survival time, dose: 200.0 mg/kg/injection, schedule: Q04DX002 (ip), vehicle: saline with Tween-80) was 89 % of control; the T/C (endpoint: mean survival time, dose: 400.0 mg/kg/injection, schedule: Q04DX002 (ip), vehicle: saline with Tween-80) is 98 % of control.
As to `O=C1NC(=NC2CCCCC2)C2(CCN(CC3COc4ccccc4O3)CC2)N1c1ccccc1` (stereo not given), the T/C by setting is: under setting [5], 91 % of control; under setting [7], 95 % of control; under setting [8], 101 % of control.
As to `CC(=O)Nc1ccc(/C=N\NC(=O)CNC(=O)Nc2ccc(F)cc2)cc1`, the T/C was 96 % of control under setting [3] and 96 % of control under setting [4].
With `COc1cc(C=Nc2cc(Br)cc(Br)c2)ccc1N(CCCl)CCCl`, the T/C (endpoint: mean survival time, dose: 200.0 mg/kg/injection, schedule: Q01DX001 (ip), vehicle: other) was 150 % of control.
Turning to `CC1(C(=O)O)C2C3C=CC(C3)C21` (stereo not given), the T/C reads like this: under setting [4], 100 % of control; under setting [9], 97 % of control; under setting [10], 103 % of control.
`O=C(c1ccccc1)C1OC1(CCl)c1ccccc1` (stereo not given): the T/C is, setting by setting: under setting [5], 106 % of control; under setting [7], 90 % of control; under setting [8], 86 % of control.
Take `C#CCN(C)CCO`: the T/C runs as follows: (endpoint: mean survival time, dose: 100.0 mg/kg/injection, schedule: Q01DX009 (ip), vehicle: acetone) 103 % of control; (endpoint: mean survival time, dose: 200.0 mg/kg/injection, schedule: Q01DX009 (ip), vehicle: acetone) 97 % of control; (endpoint: mean survival time, dose: 400.0 mg/kg/injection, schedule: Q01DX009 (ip), vehicle: acetone) 100 % of control.
For `O=P(OCc1ccccc1)(N(CCCl)CCCl)N1CCCC1` (stereo not given), the T/C (endpoint: mean survival time, dose: 128.0 mg/kg/injection, schedule: Q01DX Z (ip), vehicle: saline) is 101 % of control.
As to `OCC1CC2c3[nH]c4ccccc4c3CCN2C1` (stereo not given), the T/C by setting is: (endpoint: mean survival time, dose: 20.0 mg/kg/injection, schedule: Q01DX001 (ip), vehicle: saline with Tween-80) 95 % of control; (endpoint: mean survival time, dose: 40.0 mg/kg/injection, schedule: Q01DX001 (ip), vehicle: saline with Tween-80) 90 % of control; (endpoint: mean survival time, dose: 80.0 mg/kg/injection, schedule: Q01DX001 (ip), vehicle: saline with Tween-80) 93 % of control.
As for `CCN(CC)C(=O)c1ccccc1`, the T/C under setting [1] is 98 % of control and the T/C under setting [2] is 98 % of control.
Turning to `C=C(Cl)C(=NC(C)(C)C)Nc1ccccc1C`, the T/C (endpoint: median survival time, dose: 3.12 mg/kg/injection, schedule: Q01DX009 (ip), vehicle: Klucel (hydroxypropylcellulose) (HPC)) is 101 % of control; the T/C (endpoint: median survival time, dose: 6.25 mg/kg/injection, schedule: Q01DX009 (ip), vehicle: Klucel (hydroxypropylcellulose) (HPC)) was 109 % of control; the T/C (endpoint: median survival time, dose: 12.5 mg/kg/injection, schedule: Q01DX009 (ip), vehicle: Klucel (hydroxypropylcellulose) (HPC)) was 118 % of control; the T/C (endpoint: median survival time, dose: 25.0 mg/kg/injection, schedule: Q01DX009 (ip), vehicle: Klucel (hydroxypropylcellulose) (HPC)) is 114 % of control; the T/C (endpoint: median survival time, dose: 50.0 mg/kg/injection, schedule: Q01DX009 (ip), vehicle: Klucel (hydroxypropylcellulose) (HPC)) was 114 % of control; the T/C (endpoint: median survival time, dose: 50.0 mg/kg/injection, schedule: Q01DX009 (ip), vehicle: saline) was 103 % of control. The T/C (endpoint: median survival time, dose: 100.0 mg/kg/injection, schedule: Q01DX009 (ip), vehicle: saline) is 108 % of control and the T/C (endpoint: median survival time, dose: 200.0 mg/kg/injection, schedule: Q01DX009 (ip), vehicle: saline) was 111 % of control.
`CCOC(=O)Nc1cccc(Cl)c1Cl`: the T/C reads like this: under setting [4], 97 % of control; under setting [9], 102 % of control; under setting [10], 105 % of control.
Regarding `ClC1=NC(Cl)(Cl)C(Cl)=C1Cl`, the T/C is 95 % of control (endpoint: mean survival time, dose: 6.25 mg/kg/injection, schedule: Q04DX002 (ip), vehicle: saline); 95 % of control (endpoint: mean survival time, dose: 12.5 mg/kg/injection, schedule: Q04DX002 (ip), vehicle: saline); 98 % of control (endpoint: mean survival time, dose: 25.0 mg/kg/injection, schedule: Q04DX002 (ip), vehicle: saline).
As for `CCC1(c2ccc(O)cc2)C(=O)NC(=O)NC1=O`, the T/C is 96 % of control (endpoint: mean survival time, dose: 100.0 mg/kg/injection, schedule: Q01DX001 (ip), vehicle: saline); 89 % of control (endpoint: mean survival time, dose: 200.0 mg/kg/injection, schedule: Q01DX001 (ip), vehicle: saline); 96 % of control (endpoint: mean survival time, dose: 400.0 mg/kg/injection, schedule: Q01DX001 (ip), vehicle: saline).
